# Laboratory results as given in paper PMC9598656, “In Vitro Activity of Robenidine Analogues NCL259 and NCL265 against Gram-Negative Pathogens” (Antibiotics, 2022).
# Experiments:
# E. coli ATCC 25922 = test: Checkerboard assay with PMB; type: cell-based, Escherichia coli; conditions: for MIC, Combination: NCL259 or NCL265 with PMB; for Combination Effect / FICI: with PMB
# Method: (§1) MICs of NCL259 or NCL265 in the presence of the efflux pump inhibitor, PAβN were determined using a checkerboard assay. […] Briefly, a two-fold serial dilution of each antimicrobial solution was prepared in its appropriate solvent (e.g., DMSO for robenidine analogues and Milli-Q water for PAβN), and 1 μL of each dilution was added from wells 12 to 3 (12.8–0.25 μg/mL for robenidine analogues, and 32–2 μg/mL for PAβN). Thereafter, 89 μL of LB broth was added to each well followed by the addition of 10 μL of bacterial suspension (1–5 × 10^6 CFU/mL) to each well. In this manner, the final concentration of DMSO in each well was 1%. The plate was subsequently incubated at 37 °C for 24 h. The resazurin assay was used for assessment of drug susceptibility of NCL259 and NCL265 (Supplementary Table S1–S6). The same method was also used to test the MICs of NCL259 or NCL265 in the presence of PMB against a range of Gram-negative reference strains (E. coli ATCC 25922, E. coli ATCC 10763, P. aeruginosa PAO1, P. aeruginosa ATCC 27853, A. baumannii ATCC 12457, A. baumannii ATCC 19606, K. pneumoniae ATCC 4352 and K. pneumoniae ATCC 33495). Stock solutions were prepared prior to use (25.6–0.25 mg/mL for robenidine analogues; 12.8–0.25 mg/mL for PMB). The interaction of two antibiotics was calculated as the fractional inhibitory concentration index (FICI) using the following formula:(1) FICI=MICA in combination/MICA alone+MICB in combination/MICB alone where A is NCL259 or NCL265 and B is PAβN or PMB. According to FICI calculations, the interaction between two compounds were interpreted as follows: synergistic (FICI ≤ 0.5); additive or partially synergistic (0.5 < FICI ≤ 1); indifferent (1 < FICI ≤ 4); and antagonistic (FICI > 4), as described previously. The dose reduction index (DRI) was used to describe the difference between the effective doses of NCL259 or NCL265 in combination with PMB or PAβN in comparison to their individual doses, using the following formula:(2) DRI=MICA alone/MICA in combination
# (§2) Evaluation of DRI is important clinically because it can allow the dose of a potentially toxic drug to be lowered in combination with another compound without reducing the drug’s efficacy. A DRI higher than 1 is viewed as beneficial.
# E. coli ATCC 10763 = test: Checkerboard assay with PMB; type: cell-based, Escherichia coli; conditions: for MIC, Combination: NCL259 or NCL265 with PMB; for Combination Effect / FICI: with PMB
# Method: as §1, §2
# [1] = test system: K. pneumoniae 13GNB–429, K. pneumoniae 13GNB–550 and K. oxytoca 13GNB–582; test: MIC in presence of PAβN, three resistant Klebsiella isolates; type: cell-based; conditions: three resistant Klebsiella spp. isolates
# Method: as §1
# A. baumannii ATCC 19606 = test: MIC, broth micro-dilution; type: cell-based, Acinetobacter baumannii; conditions: Acinetobacter baumannii, ATCC19606, read-out: MIC, Single Drug
# Method: (§3) A variety of Gram-negative reference strains (E. coli ATCC 25922, E. coli ATCC 10763, P. aeruginosa PAO1, P. aeruginosa ATCC 27853, A. baumannii ATCC 12457, A. baumannii ATCC 19606, K. pneumoniae ATCC 4352 and K. pneumoniae ATCC 33495) were used for initial screening and combination testing with PMB. The organisms were speciated using biochemical testing and MALDI-TOF mass spectrometry (Bruker, Preston, VIC, Australia). Activity testing of NCL259 and NCL265 was also carried out on 51 extraintestinal clinical E. coli isolates from companion animals, and 83 porcine and bovine enterotoxigenic E. coli (ETEC) isolates from the Australian Centre for Antimicrobial Resistance Ecology collection. E. coli wild-type (BW 25113) and its mutant BW 25113∆AcrB, in which the inner membrane component AcrB of the tripartite multidrug efflux system AcrA/AcrB/TolC has been deleted, were obtained from the bacterial collection held at Health and Biomedical Innovation, Clinical and Health Sciences, The University of South Australia. All isolates were cultured on sheep blood agar (SBA) plates at 37 °C for 18 h before being subcultured into Luria Bertaini (LB) (Oxoid, Scoresby, VIC, Australia) broth and grown to A600nm = 0.5 (equivalent to approx. 1.5 × 10^8 colony-forming units (CFU)/mL).
# (§4) MICs for NCL259 and NCL265 (serial two-fold dilutions commencing at 256 µg/mL) were determined (in duplicate) in round bottom 96–well microtitre trays (Sarstedt 82.1582.001), using the broth micro-dilution method recommended by the Clinical and Laboratory Standards Institute (CLSI). We have shown previously that robenidine can chelate calcium ions from cation-adjusted Mueller-Hinton broth, which causes the loss of activity of robenidine. Therefore, LB broth was used in this study. Additionally, considering the low solubility of robenidine and its analogues in aqueous solutions, two-fold serial dilutions of stock solutions of these compounds were prepared in 100% DMSO [21]. The MIC for ampicillin against each isolate was determined for each test to serve as an internal quality control. The MICs of isolates were determined by visual reading and using an EnSpire Multimode Plate Reader 2300 at A600nm.
# A. baumannii ATCC 12457 = test: MIC, broth micro-dilution; type: cell-based, Acinetobacter baumannii; conditions: Acinetobacter baumannii, ATCC12457, read-out: MIC, Single Drug
# Method: as §3, §4
Structure (SMILES),"MIC, Combination (E. coli ATCC 25922) [µg/mL]",Dose Reduction Index (DRI) PMB:NCL259 (E. coli ATCC 25922; PMB + NCL259),Combination Effect (E. coli ATCC 25922),FICI (E. coli ATCC 25922),"MIC, Combination (E. coli ATCC 10763) [µg/mL]",Dose Reduction Index (DRI) PMB:NCL259 (E. coli ATCC 10763; PMB + NCL259),Combination Effect (E. coli ATCC 10763),FICI (E. coli ATCC 10763),MIC in the presence of PAβN [1] [µg/mL],reduction of MIC in the presence of PAβN [1],MIC (A. baumannii ATCC 19606) [µg/mL],MIC (A. baumannii ATCC 12457) [µg/mL],Dose Reduction Index (DRI) PMB:NCL265 (E. coli ATCC 25922; PMB + NCL265),Dose Reduction Index (DRI) PMB:NCL265 (E. coli ATCC 10763; PMB + NCL265)
"[H]/N=C(\N)NN=C(CC1CCCCC1)c1ccc(Cl)cc1 [NCL259, (E)-2-(1-(4-chlorophenyl)-2-cyclohexylethylidene)hydrazine-1-carboximidamide]",1,16,"Additivity (additive or partially synergistic, 0.5 < FICI ≤ 1)",0.563,0.25,256,"Additivity (additive or partially synergistic, 0.5 < FICI ≤ 1)",0.504,8 to 16,16- to 32 fold,8,8,,
"[H]/N=C(\N)NN=C(CCCCCC)c1ccc(Cl)cc1 [NCL265, (E)-2-(1-(4-chlorophenyl)heptylidene)hydrazine-1-carboximidamide]",1,,"Additivity (additive or partially synergistic, 0.5 < FICI ≤ 1)",0.75,0.25,,"Synergism (synergistic, FICI ≤ 0.5)",0.254,2 to 4,64- to 128 fold,2,2,4,256
